≈ marks a conversion by molar mass, not a printed value. Each block holds one compound with its values, some of them ahead of it.
Assays:
Assay in all cases: ≥ marks a high value that may be exact or a test limit, other limits are often not marked, values filed in µg/mL are converted to µM
[1] = system: Cronobacter muytjensii ATCC 51329
[2] = system: Cronobacter sakazakii ATCC BAA-894
[3] = system: Cronobacter sakazakii DPC 6440
[4] = system: Cronobacter sakazakii DSM 4485
[5] = system: Escherichia coli NCIMB 11843
Escherichia coli O111 = system: Escherichia coli O111
Escherichia coli O157:H7 = system: Escherichia coli O157:H7
[6] = system: Klebsiella pneumoniae NCIMB 13218
[7] = system: Listeria monocytogenes NCTC 11994
[8] = system: Pseudomonas fluorescens NCIMB 9046
[9] = system: Pseudomonas putida ATCC 49128
[10] = system: Salmonella enterica subsp. enterica serovar Typhimurium DT104
[11] = system: Salmonella enterica subsp. enterica serovar Typhimurium LT2
[12] = system: Staphylococcus aureus NCTC 7428
[13] = system: Staphylococcus aureus NCTC 8325-4
[14] = system: Staphylococcus aureus Newman
[15] = system: Staphylococcus aureus RF122
[16] = system: Staphylococcus aureus RN4220
[17] = system: Staphylococcus aureus SA113
Escherichia coli MG1655 = system: Escherichia coli MG1655
[18] = system: Pseudomonas aeruginosa PA7
[19] = system: Pseudomonas aeruginosa PAO1
[20] = system: Staphylococcus aureus NCTC 8325
Acinetobacter baumannii = system: Acinetobacter baumannii
Enterobacter cloacae = system: Enterobacter cloacae
[21] = system: Enterococcus faecalis ATCC 19433
[22] = system: Escherichia coli ATCC 25922
Escherichia coli BL21 = system: Escherichia coli BL21
[23] = system: Escherichia coli KpC+001812446
[24] = system: Klebsiella pneumoniae ATCC 13883
[25] = system: Klebsiella pneumoniae KpC+001825971
[26] = system: Pseudomonas aeruginosa ATCC 27853
[27] = system: Pseudomonas aeruginosa H1001
[28] = system: Pseudomonas aeruginosa PA14
[29] = system: Staphylococcus aureus ATCC 12600
[30] = system: Staphylococcus aureus ATCC 25923
Staphylococcus aureus = system: Staphylococcus aureus
[31] = system: Acinetobacter baumannii NM109
[32] = system: Acinetobacter baumannii NM124
[33] = system: Acinetobacter baumannii NM35
[34] = system: Acinetobacter baumannii NM75
[35] = system: Acinetobacter baumannii NM8
[36] = system: Candida albicans ATCC 90028
[37] = system: Enterococcus faecalis ATCC 29212
[38] = system: Escherichia coli ATCC 25726
[39] = system: Klebsiella pneumoniae ATCC 700603
[40] = system: Staphylococcus aureus 145/08
[41] = system: Staphylococcus epidermidis RP62A/1
[42] = system: Staphylococcus epidermidis RP62A
[43] = system: Staphylococcus epidermidis T37/8
[44] = system: Staphylococcus epidermidis T6/19
[45] = system: Stenotrophomonas maltophilia B32/1
[46] = system: Stenotrophomonas maltophilia B32/4
[47] = system: Stenotrophomonas maltophilia B5/5
[48] = system: Stenotrophomonas maltophilia B6/2
[49] = system: Stenotrophomonas maltophilia U8908

- MIC [1]: ≥ 625 µM
- MIC [2]: ≥ 625 µM
- MIC [3]: ≥ 625 µM
- MIC [4]: ≥ 625 µM
- MIC [5]: ≥ 1250 µM
- MIC (Escherichia coli O111): ≥ 1910 µM
- MIC (Escherichia coli O157:H7): ≥ 1910 µM
- MIC [6]: ≥ 1250 µM
- MIC [7]: ≥ 953 µM
- MIC [8]: ≥ 1250 µM
- MIC [9]: ≥ 953 µM
- MIC [10]: ≥ 1910 µM
- MIC [11]: ≥ 1250 µM
- MIC [12]: ≥ 1910 µM
- MIC [13]: ≥ 1250 µM
- MIC [14]: ≥ 1250 µM
- MIC [15]: ≥ 1250 µM
- MIC [16]: ≥ 1250 µM
- MIC [17]: ≥ 1250 µM
SMILES: CC[C@H](C)[C@H](N)C(=O)N[C@@H](CCCCN)C(=O)N[C@@H](Cc1cnc[nH]1)C(=O)N[C@@H](CCC(N)=O)C(=O)NCC(=O)N[C@@H](CC(C)C)C(=O)N1CCC[C@H]1C(=O)N[C@@H](CCC(N)=O)C(=O)N[C@@H](CCC(=O)O)C(=O)O [IKHQGLPQE]

- MIC (Escherichia coli MG1655): 2 µM (≈ 5.18 µg/mL)
- MIC [18]: 16 µM (≈ 41.4 µg/mL)
- MIC [19]: 16 µM (≈ 41.4 µg/mL)
- MIC [20]: ≥ 181 µM
SMILES: CC[C@H](C)[C@H](NC(=O)[C@@H](N)CCCCN)C(=O)N1CCC[C@H]1C(=O)N1CCC[C@H]1C(=O)N[C@H](C(=O)N[C@H](C(=O)N[C@@H](CCCCN)C(=O)N[C@@H](CC(=O)O)C(=O)N[C@H](C(=O)N[C@@H](CC(C)C)C(=O)N[C@@H](CCCCN)C(=O)N[C@@H](CCCCN)C(=O)N[C@H](C(=O)N[C@@H](C)C(=O)N[C@@H](CCCCN)C(=O)NCC(=O)N[C@H](C(=O)N[C@@H](CC(C)C)C(=O)N[C@@H](CO)C(=O)N[C@@H](C)C(=O)N[C@H](C(=O)N[C@@H](C)C(=O)NCC(=O)N[C@@H](C)C(=O)N[C@@H](CC(C)C)C(=O)N[C@@H](CO)C(=O)O)C(C)C)C(C)C)C(C)C)[C@@H](C)O)C(C)C)C(C)C [KIPPVVKDTLKKVAKGVLSAVAGALS]

- MIC (Acinetobacter baumannii): ≥ 32 µM
- MIC (Enterobacter cloacae): ≥ 32 µM
- MIC [21]: 5.66 µM (≈ 7.04 µg/mL)
- MIC [22]: 16 µM (≈ 19.9 µg/mL)
- MIC (Escherichia coli BL21): 4 µM (≈ 4.98 µg/mL)
- MIC [23]: 22.6 µM (≈ 28.2 µg/mL)
- MIC [24]: ≥ 32 µM
- MIC [25]: ≥ 32 µM
- MIC [26]: > 32 µM
- MIC [27]: 20 µM (≈ 24.9 µg/mL)
- MIC [28]: ≥ 32 µM
- MIC [19]: 32 µM (≈ 39.8 µg/mL)
- MIC [29]: ≥ 32 µM
- MIC [30]: > 32 µM
- MIC (Staphylococcus aureus): > 32 µM
SMILES: CC[C@H](C)[C@H](NC(=O)[C@H](CCCCN)NC(=O)[C@H](CC(C)C)NC(=O)[C@H](CCCN=C(N)N)NC(=O)[C@H](CC(C)C)NC(=O)[C@H](CCCCN)NC(=O)[C@@H](N)CCCCN)C(=O)N[C@@H](C)C(=O)N[C@@H](Cc1ccccc1)C(=O)N[C@@H](CCCCN)C(=O)O [KKLRLKIAFK]

- MIC [31]: 5 µM (≈ 15 µg/mL)
- MIC [32]: 2.5 µM (≈ 7.52 µg/mL)
- MIC [33]: 2.5 µM (≈ 7.52 µg/mL)
- MIC [34]: 2.5 µM (≈ 7.52 µg/mL)
- MIC [35]: 2.5 µM (≈ 7.52 µg/mL)
- MIC [36]: ≥ 80 µM
- MIC [37]: 5 µM (≈ 15 µg/mL)
- MIC [38]: 2.5 µM (≈ 7.52 µg/mL)
- MIC [39]: 5 µM (≈ 15 µg/mL)
- MIC [26]: 10 µM (≈ 30.1 µg/mL)
- MIC [40]: 2.5 µM (≈ 7.52 µg/mL)
- MIC [30]: 2.5 µM (≈ 7.52 µg/mL)
- MIC [41]: 1.25 µM (≈ 3.76 µg/mL)
- MIC [42]: 1.25 µM (≈ 3.76 µg/mL)
- MIC [43]: 1.25 µM (≈ 3.76 µg/mL)
- MIC [44]: 1.25 µM (≈ 3.76 µg/mL)
- MIC [45]: 2.5 µM (≈ 7.52 µg/mL)
- MIC [46]: 1.25 µM (≈ 3.76 µg/mL)
- MIC [47]: 2.5 µM (≈ 7.52 µg/mL)
- MIC [48]: 1.25 µM (≈ 3.76 µg/mL)
- MIC [49]: 2.5 µM (≈ 7.52 µg/mL)
SMILES: CC[C@H](C)[C@H](NC(=O)[C@H](C)NC(=O)[C@@H](NC(=O)[C@H](C)NC(=O)CNC(=O)[C@H](CCCCN)NC(=O)[C@@H](NC(=O)[C@H](C)NC(=O)CNC(=O)[C@H](CCCCN)NC(=O)[C@H](CC(C)C)NC(=O)[C@@H](NC(=O)[C@H](CCCCN)NC(=O)[C@H](CCCCN)NC(=O)[C@H](CC(C)C)NC(=O)[C@@H](NC(=O)[C@H](CCCCN)NC(=O)[C@H](CCCCN)NC(=O)[C@@H](NC(=O)[C@H](CCCCN)NC(=O)[C@@H]1CCCN1C(=O)[C@H](CO)NC(=O)[C@H](CC(C)C)NC(=O)[C@H](CCCCN)NC(=O)[C@@H](N)CC(C)C)[C@@H](C)O)[C@@H](C)O)C(C)C)[C@@H](C)CC)[C@@H](C)CC)C(=O)N[C@@H](C)C(=O)N[C@@H](CO)C(=O)N[C@@H](CCSC)C(=O)N[C@@H](C)C(=O)O [LKLSPKTKKTLKKVLKGAIKGAIAIASMA]
